Experimental data: patent US11109593B2, “Isoxazolin-5-one derivative and herbicide containing same as active ingredient” (HOKKO CHEMICAL INDUSTRY CO., LTD., priority 2017, dated 2021)

Key:
Format in all cases: in vivo
Echinochloa crus-galli [1] = assay: Test Example 1: herbicidal effect test by treatment of rice paddy soil (immediately after seeding)
Protocol: (§1) Herbicidal Effect Test by Treatment of Rice Paddy Soil
(§2) Wagner pots with an area of 1/10000 ares were filled with a paddy soil, and after adding water, a compound fertilizer (N:P:K=17:17:17) was added, followed by soil puddling. Then, Echinochloa crus-galli, broad leaf weeds (Lindernia pyxidaria and Monochoria vaginalis) and Scirpus juncoides, 30 seeds each, were sown in a depth of 0 to 1 cm. Water was poured immediately after seeding, and the water depth was kept at about 3 cm. The subsequent management was conducted in a glass greenhouse. Immediately after that, emulsions prepared using the compounds in Table 3 below according to Formulation Example 5 were diluted with water, and a certain amount of the water-diluted agent solutions were dropped. The converted amount of the applied active ingredient corresponded to 120 g per 10 ares.
(§3) This test was conducted in a double system per one agent solution concentration area, and the herbicidal rates (%) were determined by the following equation (Math. 1) on 14 days after the treatment with the agents. Herbicidal Rate (%)={1-(Average Dry Weight (g) of Plant of Treated Area)/(Average Dry Weight (g) of Plant of Untreated Area)}×100 [Math. 1]
(§4) The compound numbers in Table 3 are the same as those in Table 1 and Table 2 above.

Scirpus juncoides [2] = assay: as above
Protocol: as §1, §2, §3, §4

[3] = system: broad leaf weeds (Lindernia pyxidaria and Monochoria vaginalis); assay: as above
Protocol: as §1, §2, §3, §4

Echinochloa crus-galli [4] = assay: Test Example 2: herbicidal effect test by treatment during growing period in paddy rice cultivation (seven days after seeding); conditions: for Herbicidal rate (%) Echinochloa crus-galli: 120 g/10a active ingredient, assessed 14 days after treatment, dry weight vs untreated area
Protocol: as §3
(§5) Herbicidal Effect Test by Treatment During Growing Period in Paddy Rice Cultivation
as §2, with “was mixed,” for “was added,”, “greenhouse. Emulsions” for “greenhouse. Immediately after that, emulsions”, “Table 4” for “Table 3”, “with water seven days after seeding,” for “with water,”, “ares. The test was conducted in a double system per one agent solution concentration area, and the herbicidal rates (%) were determined by the equation (Math. 1) on 14 days after the treatment with the agents. […] The compound numbers in Table 4 are the same as those in Table 1 and Table 2 above.” for “ares.”

Scirpus juncoides [5] = assay: as above; conditions: for Herbicidal rate (%) Scirpus juncoides: 120 g/10a active ingredient, assessed 14 days after treatment, dry weight vs untreated area
Protocol: as §3, §5
as §2, with “was mixed,” for “was added,”, “greenhouse. Emulsions” for “greenhouse. Immediately after that, emulsions”, “Table 4” for “Table 3”, “with water seven days after seeding,” for “with water,”, “ares. The test was conducted in a double system per one agent solution concentration area, and the herbicidal rates (%) were determined by the equation (Math. 1) on 14 days after the treatment with the agents. […] The compound numbers in Table 4 are the same as those in Table 1 and Table 2 above.” for “ares.”

[6] = system: broad leaf weeds (Lindernia pyxidaria and Monochoria vaginalis); assay: as above; conditions: for Herbicidal rate (%) Lindernia pyxidaria / Herbicidal rate (%) Monochoria vaginalis: 120 g/10a active ingredient, assessed 14 days after treatment, dry weight vs untreated area
Protocol: as §3, §5
as §2, with “was mixed,” for “was added,”, “greenhouse. Emulsions” for “greenhouse. Immediately after that, emulsions”, “Table 4” for “Table 3”, “with water seven days after seeding,” for “with water,”, “ares. The test was conducted in a double system per one agent solution concentration area, and the herbicidal rates (%) were determined by the equation (Math. 1) on 14 days after the treatment with the agents. […] The compound numbers in Table 4 are the same as those in Table 1 and Table 2 above.” for “ares.”

[7] = 120 g/10a active ingredient, dry weight vs untreated area, 14 days after treatment
[8] = Lindernia pyxidaria, 120 g/10a active ingredient, dry weight vs untreated area, 14 days after treatment
[9] = Monochoria vaginalis, 120 g/10a active ingredient, dry weight vs untreated area, 14 days after treatment
[10] = 120 g/10a active ingredient, 14 days after treatment, dry weight vs untreated area
[11] = 120 g/10a, rated 14 days after treatment, paddy soil pots

Structure (SMILES) | Herbicidal rate (%) Echinochloa crus-galli (Echinochloa crus-galli [1]; [7]) [%] | Herbicidal rate (%) Scirpus juncoides (Scirpus juncoides [2]; [7]) [%] | Herbicidal rate (%) Lindernia pyxidaria [3, 8] [%] | Herbicidal rate (%) Monochoria vaginalis [3, 9] [%] | Herbicidal rate (%) Echinochloa crus-galli (Echinochloa crus-galli [4]) [%] | Herbicidal rate (%) Scirpus juncoides (Scirpus juncoides [5]) [%] | Herbicidal rate (%) Lindernia pyxidaria ([6]; Lindernia pyxidaria) [%] | Herbicidal rate (%) Monochoria vaginalis ([6]; Monochoria vaginalis) [%] | Herbicidal rate (%) Echinochloa crus-galli (Echinochloa crus-galli [1]; [10]) [%] | Herbicidal rate (%) Scirpus juncoides (Scirpus juncoides [2]; [10]) [%] | Herbicidal rate (%) Lindernia pyxidaria ([3]; Lindernia pyxidaria, 120 g/10a active ingredient, 14 days after treatment, dry weight vs untreated area) [%] | Herbicidal rate (%) Monochoria vaginalis ([3]; Monochoria vaginalis, 120 g/10a active ingredient, 14 days after treatment, dry weight vs untreated area) [%] | herbicidal rate, Echinochloa crus-galli (Echinochloa crus-galli [4]; [11]) [%] | herbicidal rate, Scirpus juncoides (Scirpus juncoides [5]; [11]) [%] | herbicidal rate, Lindernia pyxidaria ([6]; Lindernia pyxidaria, 120 g/10a, rated 14 days after treatment, paddy soil pots) [%] | herbicidal rate, Monochoria vaginalis ([6]; Monochoria vaginalis, 120 g/10a, rated 14 days after treatment, paddy soil pots) [%]
Cc1c(Cc2ccccc2NS(=O)(=O)C(F)(F)F)c(=O)on1CCOCc1ccccc1 [Compound 1-238] | 100 | 80 | 80 | 80 | 80 | 80 | 40 | 80 | – | – | – | – | – | – | – | –
Cc1c(Cc2ccccc2N(S(=O)(=O)C(F)(F)F)S(=O)(=O)C(F)(F)F)c(=O)on1Cc1ccc(F)c(F)c1 [Compound 1-1027] | 90 | 80 | 100 | 100 | 40 | 40 | 40 | 40 | – | – | – | – | – | – | – | –
Cc1c(Cc2ccccc2NS(=O)(=O)C(F)(F)F)c(=O)on1Cc1ccc(SC(F)(F)F)cc1 [Compound 1-198] | 80 | 80 | 100 | 100 | 40 | 40 | 90 | 90 | – | – | – | – | – | – | – | –
Cc1c(Cc2ccccc2NS(=O)(=O)C(F)(F)F)c(=O)on1Cc1ccccc1F [Compound 1-181] | 90 | 90 | 100 | 90 | 50 | 90 | 80 | 90 | – | – | – | – | – | – | – | –
Cc1ccc(Cn2oc(=O)c(Cc3ccccc3N(S(=O)(=O)C(F)(F)F)S(=O)(=O)C(F)(F)F)c2C)cc1 [Compound 1-1018] | 90 | 90 | 100 | 90 | 40 | 80 | 80 | 80 | – | – | – | – | – | – | – | –
Cc1c(Cc2ccccc2NS(=O)(=O)C(F)(F)F)c(=O)on1C(C)c1ccccc1Cl (stereo not drawn) [Compound 1-205] | 100 | 90 | 100 | 100 | 50 | 80 | 90 | 90 | – | – | – | – | – | – | – | –
Cc1c(Cc2ccccc2NS(=O)(=O)C(F)(F)F)c(=O)on1C(C)c1ccsc1 (stereo not drawn) [Compound 1-235] | 90 | 80 | 60 | 80 | 50 | 60 | 40 | 60 | – | – | – | – | – | – | – | –
Cc1c(Cc2ccccc2NS(=O)(=O)C(F)(F)F)c(=O)on1Cc1ccc(Br)cc1 [Compound 1-187] | 90 | 80 | 90 | 90 | 40 | 70 | 70 | 80 | – | – | – | – | – | – | – | –
Cc1c(Cc2ccccc2N(S(=O)(=O)C(F)(F)F)S(=O)(=O)C(F)(F)F)c(=O)on1Cc1ccc(OC(F)(F)F)cc1 [Compound 1-1023] | 50 | 50 | 40 | 50 | 40 | 40 | 40 | 40 | – | – | – | – | – | – | – | –
Cc1c(Cc2ccccc2N(S(=O)(=O)C(F)(F)F)S(=O)(=O)C(F)(F)F)c(=O)on1CCOc1ccccc1 [Compound 1-1058] | – | – | – | – | – | – | – | – | 90 | 90 | 80 | 70 | 90 | 80 | 80 | 90
Cc1c(Cc2c(Cl)cccc2NS(=O)(=O)C(F)(F)F)c(=O)on1C(C)C [Compound 1-46] | 60 | 90 | 80 | 80 | 40 | 60 | 40 | 40 | – | – | – | – | – | – | – | –
Cc1c(Cc2ccccc2NS(=O)(=O)C(F)(F)F)c(=O)on1Cc1ccc(C(C)(C)C)cc1 [Compound 1-192] | 90 | 40 | 100 | 100 | 40 | 60 | 80 | 80 | – | – | – | – | – | – | – | –
CCC(C)Cn1oc(=O)c(Cc2ccccc2N(C(=O)OCc2ccccc2)S(=O)(=O)C(F)(F)F)c1C (single isomer, unassigned) [1-788 (TLC top)] | 80 | 80 | 60 | 50 | 40 | 50 | 40 | 40 | – | – | – | – | – | – | – | –
CCCCCCCCn1oc(=O)c(Cc2ccccc2N(S(=O)(=O)C(F)(F)F)S(=O)(=O)C(F)(F)F)c1C [Compound 1-981] | 80 | 70 | 60 | 50 | 90 | 40 | 50 | 40 | – | – | – | – | – | – | – | –
Cc1c(Cc2ccccc2NS(=O)(=O)C(F)(F)F)c(=O)on1C(C)c1ccc(OC(F)(F)F)cc1 (stereo not drawn) [Compound 1-209] | 90 | 70 | 60 | 60 | 40 | 90 | 60 | 80 | – | – | – | – | – | – | – | –
Cc1c(Cc2ccccc2N(S(=O)(=O)C(F)(F)F)S(=O)(=O)C(F)(F)F)c(=O)on1Cc1ccc(F)c(Cl)c1 [Compound 1-1029] | 60 | 60 | 60 | 60 | – | – | – | – | – | – | – | – | – | – | – | –
Cc1c(Cc2ccccc2N(S(=O)(=O)C(F)(F)F)S(=O)(=O)C(F)(F)F)c(=O)on1Cc1cccc(F)c1 [Compound 1-1013] | 40 | 90 | 90 | 90 | – | – | – | – | – | – | – | – | – | – | – | –
Cc1c(Cc2ccccc2N(S(=O)(=O)C(F)(F)F)S(=O)(=O)C(F)(F)F)c(=O)on1Cc1ccc(C(F)(F)F)cc1 [Compound 1-1021] | 40 | 60 | 40 | 40 | – | – | – | – | – | – | – | – | – | – | – | –
